Laboratory results from patent US20240217957A1, “HETEROCYCLIC COMPOUND AND USE THEREOF” (TAKEDA PHARMACEUTICAL COMPANY LIMITED, priority 2022, published 2024).

Assays:
cynomolgus monkeys = test: Evaluation of wake-promoting effects in cynomolgus monkeys (EEG, EMG, locomotor activity); format: in vivo, cynomolgus monkey; settings: 3 mg/kg p.o. at zeitgeber time 12, male cynomolgus monkeys, time spent in wakefulness for 4 hours after administration
Experimental: The wake-promoting effects were evaluated by measuring the electroencephalogram (EEG), electromyogram (EMG) and locomotor activity in cynomolgus monkeys. Under isoflurane anesthesia (0.5-5%, Pfizer Japan Inc., Tokyo, Japan), male cynomolgus monkeys (2-3 years old, Hamri Co., Ltd., Ibaraki, Japan) were surgically implanted with radio-telemetry transmitters (L03-F3, Data Sciences International Inc., MN, USA). The two EEG electrodes were stereotaxically positioned at the parietal area and secured to the cranium with stainless-steel screws in contact with the dura. Bilateral EMG electrodes were implanted into the back cervical muscles.
After at least a 1-month recovery period in home cages, the monkeys were habituated to the recording chamber (an acrylic cage 60 W×55 D×75 H (cm)) located in a soundproof and electrically shielded room by the time animals sleep sufficiently in the experimental room. Cortical EEG, EMG and locomotor activity were recorded using the telemetry system (PhysioTel Digital telemetry platform, Data Sciences International Inc.). The signals were semi-automatically scored in 20-second epochs by a sleep scoring system (SleepSign, Kissei Comtec Co., Ltd., Nagano, Japan).
Test compound (3 mg/kg) suspended in 0.5% methylcellulose aqueous solution or vehicle (i.e., 0.5% methylcellulose aqueous solution) was administered orally (p.o.) to monkeys at zeitgeber time 12 in a volume of 5 mL/kg body weight with a pretest-posttest design (n=2), and then EEG, EMG and locomotor activity were recorded. The time spent in wakefulness for 4 hours after administration (% of vehicle treatment) was calculated by using SleepSign.

human OX2 receptor = biological target: T1, human OX2 receptor (Homo sapiens, UniProt O43614); test: Measurement of orexin type 2 receptor agonist activity (calcium fluorescence, Fluo-4 AM, FDSS); format: cell-based; settings: compound at 3 μM; CHO cells forcibly expressing human OX2 receptor; DMSO = 0%, 10 nM orexin A (human) = 100%
T1 construct: expressed in transfected cells
T1 sequence (O43614 1-444): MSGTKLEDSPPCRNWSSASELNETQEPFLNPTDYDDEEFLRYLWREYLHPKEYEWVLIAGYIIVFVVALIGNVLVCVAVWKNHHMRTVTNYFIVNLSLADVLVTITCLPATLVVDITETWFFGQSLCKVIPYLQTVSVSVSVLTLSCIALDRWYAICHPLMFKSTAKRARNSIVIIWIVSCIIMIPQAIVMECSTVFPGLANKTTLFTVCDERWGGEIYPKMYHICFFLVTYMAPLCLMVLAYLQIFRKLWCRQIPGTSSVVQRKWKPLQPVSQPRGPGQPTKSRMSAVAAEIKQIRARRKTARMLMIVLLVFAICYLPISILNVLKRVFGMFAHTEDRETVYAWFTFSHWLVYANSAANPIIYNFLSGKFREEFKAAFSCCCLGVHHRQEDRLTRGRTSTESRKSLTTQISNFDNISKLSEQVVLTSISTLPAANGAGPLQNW
In short: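 Agonist response is expressed as % of the fluorescence change given by 10 nM human orexin A, with DMSO as 0%, read over 1 min 40 s on FDSS after compound addition. Cells: stable human OX2 (1-444) CHO-K1 clones, dye-loaded with Fluo-4 AM plus probenecid in HEPES-buffered HBSS with 0.1% BSA.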

Row | OX2R agonist activity (3 μM, %) (human OX2 receptor) [%] | Structure (SMILES) | Wakefulness time (% of vehicle treatment) (Mean, n = 2) (cynomolgus monkeys)
1 | 101 | CS(=O)(=O)N[C@@H]1CN(C2=NO[C@](CF)(c3ncc(F)cc3-c3c(F)cccc3F)C2)CC1(F)F [Example 109, N-[(3R)-1-{(5S)-5-[3-(2,6-difluorophenyl)-5-fluoropyridin-2-yl]-5-(fluoromethyl)-4,5-dihydro-1,2-oxazol-3-yl}-4,4-difluoropyrrolidin-3-yl]methanesulfonamide] | 558.37 % of vehicle treatment
2 | 96 | O=S(=O)(CF)N[C@@H]1CN(C2=NO[C@](CF)(c3ncc(F)cc3-c3c(F)cccc3F)C2)CC1(F)F [Example 149, N-[(3R)-1-{(5S)-5-[3-(2,6-difluorophenyl)-5-fluoropyridin-2-yl]-5-(fluoromethyl)-4,5-dihydro-1,2-oxazol-3-yl}-4,4-difluoropyrrolidin-3-yl]-1-fluoromethanesulfonamide] | 282.21 % of vehicle treatment
3 | 100 | C[C@@]1(c2ncc(F)cc2-c2c(F)cccc2F)CC(N2C[C@@H](NS(C)(=O)=O)C(F)(F)C2)=NO1 [Example 165, N-[(3R)-1-{(5S)-5-[3-(2,6-difluorophenyl)-5-fluoropyridin-2-yl]-5-methyl-4,5-dihydro-1,2-oxazol-3-yl}-4,4-difluoropyrrolidin-3-yl]methanesulfonamide] | 716.25 % of vehicle treatment
4 | 99 | CS(=O)(=O)N[C@@H]1CN(C2=NOC(c3c(F)cc(F)c(F)c3-c3c(F)cccc3F)C2)CC1(F)F (stereo partly drawn) [Example 172, N-{(3R)-4,4-difluoro-1-[5-(2′,3,5,6,6′-pentafluoro[1,1′-biphenyl]-2-yl)-4,5-dihydro-1,2-oxazol-3-yl]pyrrolidin-3-yl}methanesulfonamide] | –

The remaining lines, values behind:

Row | Structure (SMILES) | OX2R agonist activity (3 μM, %) (human OX2 receptor) [%] | Wakefulness time (% of vehicle treatment) (Mean, n = 2) (cynomolgus monkeys)
5 | Cc1cnc([C@@H]2CC(N3C[C@@H](NS(C)(=O)=O)C(F)(F)C3)=NO2)c(-c2c(F)cc(F)cc2F)c1 [Example 11, N-[(3R)-4,4-difluoro-1-{(5S)-5-[5-methyl-3-(2,4,6-trifluorophenyl)pyridin-2-yl]-4,5-dihydro-1,2-oxazol-3-yl}pyrrolidin-3-yl]methanesulfonamide] | 96 | 638.80 % of vehicle treatment
6 | O=S(=O)(CF)N[C@@H]1CN(C2=NOC(c3c(F)cccc3-c3c(F)cccc3F)C2)CC1(F)F (stereo partly drawn) [Example 170, N-{(3R)-4,4-difluoro-1-[5-(2′,3,6′-trifluoro[1,1′-biphenyl]-2-yl)-4,5-dihydro-1,2-oxazol-3-yl]pyrrolidin-3-yl}-1-fluoromethanesulfonamide] | 102 | –
7 | CS(=O)(=O)N[C@@H]1CN(C2=NOC(c3c(F)cc(Cl)cc3-c3ncc(F)cc3F)C2)CC1(F)F (stereo partly drawn) [Example 171, N-[(3R)-1-{5-[4-chloro-2-(3,5-difluoropyridin-2-yl)-6-fluorophenyl]-4,5-dihydro-1,2-oxazol-3-yl}-4,4-difluoropyrrolidin-3-yl]methanesulfonamide] | 109 | –
8 | O=S(=O)(CF)N[C@@H]1CN(C2=NOC(c3c(F)ccc(F)c3-c3c(F)cccc3F)C2)CC1(F)F (stereo partly drawn) [Example 173, N-{(3R)-4,4-difluoro-1-[5-(2′,3,6,6′-tetrafluoro[1,1′-biphenyl]-2-yl)-4,5-dihydro-1,2-oxazol-3-yl]pyrrolidin-3-yl}-1-fluoromethanesulfonamide] | 100 | –
9 | O=S(=O)(CF)N[C@@H]1CN(C2=NOC(c3c(F)cc(F)c(F)c3-c3c(F)cccc3F)C2)CC1(F)F (stereo partly drawn) [Example 174, N-{(3R)-4,4-difluoro-1-[5-(2′,3,5,6,6′-pentafluoro[1,1′-biphenyl]-2-yl)-4,5-dihydro-1,2-oxazol-3-yl]pyrrolidin-3-yl}-1-fluoromethanesulfonamide] | 107 | –
10 | COc1cccc(F)c1-c1cc(C)cc(F)c1C1CC(N2C[C@@H](NS(C)(=O)=O)C(F)(F)C2)=NO1 (stereo partly drawn) [Example 175, N-{(3R)-1-[5-(2′,3-difluoro-6′-methoxy-5-methyl[1,1′-biphenyl]-2-yl)-4,5-dihydro-1,2-oxazol-3-yl]-4,4-difluoropyrrolidin-3-yl}methanesulfonamide] | 112 | –
11 | Cc1cc(F)c(C2CC(N3C[C@@H](NS(C)(=O)=O)C(F)(F)C3)=NO2)c(-c2ncccc2F)c1 (stereo partly drawn) [Example 176, N-[(3R)-4,4-difluoro-1-{5-[2-fluoro-6-(3-fluoropyridin-2-yl)-4-methylphenyl]-4,5-dihydro-1,2-oxazol-3-yl}pyrrolidin-3-yl]methanesulfonamide] | 109 | –
12 | Cc1cc(F)c(C2CC(N3C[C@@H](NS(=O)(=O)CF)C(F)(F)C3)=NO2)c(-c2ncc(F)cc2F)c1 (stereo partly drawn) [Example 177, N-[(3R)-1-{5-[2-(3,5-difluoropyridin-2-yl)-6-fluoro-4-methylphenyl]-4,5-dihydro-1,2-oxazol-3-yl}-4,4-difluoropyrrolidin-3-yl]-1-fluoromethanesulfonamide] | 106 | –
13 | Cc1cc(F)c(C2CC(N3C[C@H](F)[C@H](NS(C)(=O)=O)C3)=NO2)c(-c2ncc(F)cc2F)c1 (stereo partly drawn) [Example 178, N-[(3R,4S)-1-{5-[2-(3,5-difluoropyridin-2-yl)-6-fluoro-4-methylphenyl]-4,5-dihydro-1,2-oxazol-3-yl}-4-fluoropyrrolidin-3-yl]methanesulfonamide] | 111 | –
